The values below come from patent US10428101B2, “Preparation of glycosphingosines” (The Regents of the University of California, priority 2013, dated 2019).

For data set [1], the target named is Pasteurella multocida α2-3-sialyltransferase 1 E271F/R313Y mutant (PmST1 E271F/R313Y) (Pasteurella multocida, UniProt Q15KI8, E271F/R313Y). Conditions: for Conversion (%): acceptor lactoside to Neu5Acα2-3 product, OPME sialylation pH 8.5, assayed at 4 h, TLC and ImageQuant 5.2. The source says: To test the suitability of lactoside 1 as an acceptor sugar, a one-pot two-enzyme system containing PmST1 E271F/R313Y and Neisseria meningitidis CMP-sialic acid synthetase (NmCSS) (Scheme 2) was used.
Sequence of Pasteurella multocida α2-3-sialyltransferase 1 E271F/R313Y mutant (PmST1 E271F/R313Y) (Q15KI8 26-412 E271F/R313Y): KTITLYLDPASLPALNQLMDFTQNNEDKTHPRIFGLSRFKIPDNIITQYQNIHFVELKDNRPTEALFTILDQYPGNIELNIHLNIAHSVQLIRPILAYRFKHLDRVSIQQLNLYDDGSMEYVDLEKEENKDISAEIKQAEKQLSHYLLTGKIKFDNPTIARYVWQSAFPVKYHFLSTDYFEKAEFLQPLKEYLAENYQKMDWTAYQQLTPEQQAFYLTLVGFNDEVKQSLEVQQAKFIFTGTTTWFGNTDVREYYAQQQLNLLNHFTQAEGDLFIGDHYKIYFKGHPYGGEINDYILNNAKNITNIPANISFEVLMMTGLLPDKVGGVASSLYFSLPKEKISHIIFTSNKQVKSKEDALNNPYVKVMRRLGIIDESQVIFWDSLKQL
To increase the solubility of the fluorous-tagged lactosides and to examine how the length of the fluorous tags affects the efficiency of the enzymatic reactions, fluorous-tagged lactosides (2-4) (Scheme 1) containing a propylamide linker and different lengths of fluoroalkyl chains were synthesized and used as the acceptor sugars in a one-pot two-enzyme system containing NmCSS and PmST1 E271F/R313Y (Scheme 3).
The reactions were monitored by TLC (EtOAc:MeOH:H2O:AcOH=5:2:1:0.1).

Data set [2] concerns the target Photobacterium damselae α2-6-sialyltransferse (Pd2,6ST) (Photobacterium damselae, UniProt O66375). As to the kind of experiment: One-pot two-enzyme α2-6-sialylation of fluorous-tagged lactoside acceptors (NmCSS + Pd2,6ST), conversion by TLC/ImageQuant. The settings on record: acceptor lactoside to Neu5Acα2-6 product; OPME sialylation pH 8.5; assayed at 4 h; TLC and ImageQuant 5.2. The data set is classed as biochemical.
Experimental: B: One-pot two-enzyme sialylation reaction with Pd2,6ST.
Reaction conversion rates were determined by staining the TLC plates with p-anisaldehyde sugar stain and then using ImageQuant 5.2 software to compare the relative intensities between the glycosylation product spot and the lactoside acceptor spot of each reaction (FIG. 1). For external standard comparison, each lactoside acceptor spot was also compared with its corresponding standard 10 mM stock solution spot to verify the conversion rates of each reaction.
Pd2,6ST (0.72 μg) was added to a 0.5 mL centrifuge tube containing 0.01μmol (1 eq.) of a lactoside acceptor (chosen from 1-8), Neu5Ac (1.2 eq.), CTP (2 eq.), Tris-HCl buffer (100 mM, pH 8.5), MgCl2 (20 mM), NmCSS (0.08 μg), and water (total volume=10 μL). The reactions were monitored by TLC (EtOAc:MeOH:H2O:AcOH=5:2:1:0.1).

The nature of data set [3]: Water solubility of fluorous-tagged lactoside. The data set is classed as physicochemical. The settings on record: qualitative statement.

Marks after values point to notes of the source that are not given here.

Sequence of Photobacterium damselae α2-6-sialyltransferse (Pd2,6ST) (O66375 entry or part of it): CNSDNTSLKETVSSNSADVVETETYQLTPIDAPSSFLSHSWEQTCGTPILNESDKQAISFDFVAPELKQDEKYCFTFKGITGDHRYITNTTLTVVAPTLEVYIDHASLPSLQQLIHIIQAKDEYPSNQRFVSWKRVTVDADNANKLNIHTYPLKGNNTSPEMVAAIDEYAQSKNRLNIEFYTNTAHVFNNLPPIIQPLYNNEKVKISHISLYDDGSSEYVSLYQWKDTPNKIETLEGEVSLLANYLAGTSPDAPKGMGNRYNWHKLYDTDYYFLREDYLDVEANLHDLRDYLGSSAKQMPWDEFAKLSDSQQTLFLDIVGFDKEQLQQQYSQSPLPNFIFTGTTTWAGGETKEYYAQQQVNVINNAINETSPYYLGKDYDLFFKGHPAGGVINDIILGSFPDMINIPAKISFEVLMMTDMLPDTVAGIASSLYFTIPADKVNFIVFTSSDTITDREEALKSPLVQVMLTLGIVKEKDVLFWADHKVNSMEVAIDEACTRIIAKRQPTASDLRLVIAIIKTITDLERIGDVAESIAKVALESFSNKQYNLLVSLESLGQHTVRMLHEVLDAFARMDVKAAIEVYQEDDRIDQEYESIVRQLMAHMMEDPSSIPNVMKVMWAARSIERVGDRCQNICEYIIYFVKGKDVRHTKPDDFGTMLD

With LacβProNH-HEG-C6F13 [Compound 8], the “Conversion (%)” value in data set [1] is 80 ± 15^[b] %; in data set [2], 66 ± 25^[b] %.
On to LacβProNH-TEG-C8F17 [Compound 5], for which the “Conversion (%)” value in data set [1] is 65 ± 11^[b] %; in data set [2] it was 47 ± 10^[b] %.
Take LacβProNH-HEG-C8F17 [Compound 6]: the “Conversion (%)” value in data set [1] was 55 ± 7.8^[b] %; in data set [2], 52 ± 5.6^[b] %.
With LacβProNH-TEG-C6F13 [Compound 7], the “Conversion (%)” value in data set [1] was 70 ± 4.8^[b] %; in data set [2] it was 65 ± 7.9^[b] %.
In the case of LacβProNH—C3F7 [Compound 4], the “Conversion (%)” value in data set [1] was 89 ± 9.8^[b] %; in data set [2], “qt.^[b]”.
As for LacβC8F17 [Compound 1], in data set [1] (one-pot two-enzyme system PmST1 E271F/R313Y and NmCSS, by TLC and MALDI-TOF), the “sialylated product detected (trace amount)” value is less than 10%. Also, the water solubility result in data set [3] is on record as “low”.
As for LacβProNH—C6F13 [Compound 3], the “Conversion (%)” value in data set [1] was 92 ± 5.5^[b] %; in data set [2], 94 ± 6.0^[b] %.
In the case of LacβProNH-C8F17 [Compound 2], the “Conversion (%)” value is 22 ± 12^[b] % in data set [1] and 31 ± 18^[b] % in data set [2].
